Values quoted from earlier work as cited in patent US20040146462A1, “Contrast agents” (priority 1998, published 2004).

System: coronary blood flow in healthy myocardial tissue
Settings: administration of adenosine

SMILES: Nc1ncnc2c1ncn2[C@@H]1O[C@H](CO)[C@@H](O)[C@H]1O [adenosine]
- increase in coronary blood flow in healthy myocardial tissue: in excess of fourfold
